Assay results as given in patent US8906925B2, “Pyrido[4,3-B]indoles containing rigid moieties” (Medivation Technologies, Inc., priority 2008, dated 2014).

Experiments:
[1] = target: T1, histamine receptor H1 (Homo sapiens, UniProt P35367); assay: Inhibition of binding of a ligand (Pyrilamine) to histamine receptor H1; details: as compared to the unsubstituted vinyl counterpart (106 vs compound 415; 85 vs compound 95)
Description: The number and extent of undesirable side effects increases with increasing affinity for the H1 receptor Thus, in one aspect, compounds of the formulae herein display reduced, low or no affinity to histamine receptor H1. […] Inhibition of binding of a ligand to H1 for all variations detailed herein is determined by a suitable assay known in the art such as the assay described herein. […] In one variation, compounds of the formulae herein inhibit binding of a ligand to H1 by between about 50% to about 80%. […] In one variation, compounds of the formulae herein inhibit binding of Pyrilamine to H1 as determined in the assay described herein. In a further variation, percent inhibition of binding to H1 is measured by assays detailed herein.
The binding properties of compounds disclosed herein to a panel of aminergic G protein-coupled receptors including adrenergic receptors, dopamine receptors, serotonin receptors, histamine receptors and an imidazoline receptor may be determined. Binding properties may be assessed by methods known in the art, such as competitive binding assays. In one variation, compounds are assessed by the binding assays detailed herein. […]
In one aspect, DDT compounds display low affinity to histamine receptor H1. […] Inhibition of binding of a ligand to H1 for all variations detailed herein is determined by a suitable assay known in the art such as the assay described herein. […]

[2] = target: T1, histamine receptor H1; assay: Histamine H1 radioligand binding ([3H]Pyrilamine)
Method in brief: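 Values are percent inhibition of specific [3H]pyrilamine (1.2 nM) binding with compounds at ≤1 μM (1% DMSO vehicle); 180 min incubation at 25 °C, pH 7.4 Tris buffer, on CHO-expressed human H1 receptor; 1 μM pyrilamine defined nonspecific binding, bound ligand counted after filtration.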

[3] = target: human dopamine D2L receptor (Homo sapiens, UniProt P14416); assay: Dopamine D2L radioligand binding ([3H]Spiperone); details: percent inhibition of specific binding, compound at 1 μM
Chain of human dopamine D2L receptor (P14416 whole entry): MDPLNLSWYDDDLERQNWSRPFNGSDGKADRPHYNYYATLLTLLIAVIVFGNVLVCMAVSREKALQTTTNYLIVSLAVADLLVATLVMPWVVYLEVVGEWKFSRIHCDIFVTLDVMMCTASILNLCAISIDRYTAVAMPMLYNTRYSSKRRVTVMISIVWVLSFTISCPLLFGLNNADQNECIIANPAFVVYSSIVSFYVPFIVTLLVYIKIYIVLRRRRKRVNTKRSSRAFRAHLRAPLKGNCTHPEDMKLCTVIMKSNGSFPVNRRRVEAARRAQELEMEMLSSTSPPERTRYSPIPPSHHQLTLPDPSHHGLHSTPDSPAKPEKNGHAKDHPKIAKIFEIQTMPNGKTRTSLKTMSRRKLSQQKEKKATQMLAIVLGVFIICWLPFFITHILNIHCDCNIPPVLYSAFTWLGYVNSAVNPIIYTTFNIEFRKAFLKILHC
Text: Non-specific binding was estimated in the presence of […] Haloperidol. Receptor proteins were filtered and washed, the filters were then counted to determine [^3H]Spiperone specifically bound. […] Biochemical assay results are presented as the percent inhibition of specific binding in Table 9.

[4] = target: T2, human recombinant serotonin (5-Hydroxytryptamine) 5-HT2A receptor (Homo sapiens, UniProt P28223); assay: Serotonin 5-HT2A radioligand binding ([3H]Ketanserin)
T2 construct: expressed in transfected cells; host or cells: Chinese hamster ovary (CHO-K1) cells
T2 sequence (P28223 whole entry): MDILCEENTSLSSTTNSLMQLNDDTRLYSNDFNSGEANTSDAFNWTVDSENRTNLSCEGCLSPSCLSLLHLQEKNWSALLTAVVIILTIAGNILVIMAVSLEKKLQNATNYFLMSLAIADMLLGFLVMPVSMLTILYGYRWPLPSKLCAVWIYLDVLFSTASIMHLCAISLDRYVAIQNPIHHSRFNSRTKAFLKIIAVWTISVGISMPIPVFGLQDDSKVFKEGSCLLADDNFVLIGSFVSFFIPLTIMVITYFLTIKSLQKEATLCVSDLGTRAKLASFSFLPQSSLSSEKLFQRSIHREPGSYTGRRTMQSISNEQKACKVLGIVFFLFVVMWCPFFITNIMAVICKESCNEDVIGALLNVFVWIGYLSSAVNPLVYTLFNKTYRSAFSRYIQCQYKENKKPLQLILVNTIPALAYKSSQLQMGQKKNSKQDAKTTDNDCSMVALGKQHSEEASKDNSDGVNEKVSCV
Description: Compounds of the invention were incubated with 0.5 nM [^3H]Ketanserin for 60 min. at 25° C. Non-specific binding was estimated in the presence of 1 μM Mianserin. Receptor proteins were filtered and washed, the filters were then counted to determine [^3H]Ketanserin specifically bound.

[5] = target: T3, human recombinant serotonin (5-Hydroxytryptamine) 5-HT2C receptor (Homo sapiens, UniProt P28335); assay: Serotonin 5-HT2C radioligand binding ([3H]Mesulergine); details: compound at 0.1 μM; read-out: Inhibition of ligand binding, Serotonin 5-HT2C (percent inhibition of specific binding)
T3 construct: expressed in transfected cells; host or cells: Chinese hamster ovary (CHO-K1) cells
T3 sequence (P28335 33-458): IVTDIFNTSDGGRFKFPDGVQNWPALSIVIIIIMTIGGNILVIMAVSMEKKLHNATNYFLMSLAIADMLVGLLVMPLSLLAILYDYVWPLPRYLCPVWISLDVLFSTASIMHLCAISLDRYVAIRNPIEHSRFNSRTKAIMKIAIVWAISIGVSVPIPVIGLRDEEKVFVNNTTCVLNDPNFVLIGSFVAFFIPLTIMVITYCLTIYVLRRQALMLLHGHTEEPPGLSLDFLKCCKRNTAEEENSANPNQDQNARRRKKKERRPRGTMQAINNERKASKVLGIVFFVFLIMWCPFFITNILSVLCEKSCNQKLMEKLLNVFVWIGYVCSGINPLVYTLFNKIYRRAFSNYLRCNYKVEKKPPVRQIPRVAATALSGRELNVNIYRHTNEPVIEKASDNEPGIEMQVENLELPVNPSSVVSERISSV
Method in brief: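 Compounds tested at 1 μM or lower (1% DMSO vehicle) for displacement of 1 nM [3H]Mesulergine over 60 min at 25° C. Specific binding determined by filtration counting, with 1 μM Mianserin defining non-specific binding; values are percent inhibition.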

[6] = target: T4, human recombinant serotonin (5-Hydroxytryptamine) 5-HT6 receptor (Homo sapiens, UniProt P50406); assay: Serotonin 5-HT6 radioligand binding ([3H]LSD)
T4 construct: expressed in transfected cells; host or cells: human HeLa cells
T4 sequence (P50406 whole entry): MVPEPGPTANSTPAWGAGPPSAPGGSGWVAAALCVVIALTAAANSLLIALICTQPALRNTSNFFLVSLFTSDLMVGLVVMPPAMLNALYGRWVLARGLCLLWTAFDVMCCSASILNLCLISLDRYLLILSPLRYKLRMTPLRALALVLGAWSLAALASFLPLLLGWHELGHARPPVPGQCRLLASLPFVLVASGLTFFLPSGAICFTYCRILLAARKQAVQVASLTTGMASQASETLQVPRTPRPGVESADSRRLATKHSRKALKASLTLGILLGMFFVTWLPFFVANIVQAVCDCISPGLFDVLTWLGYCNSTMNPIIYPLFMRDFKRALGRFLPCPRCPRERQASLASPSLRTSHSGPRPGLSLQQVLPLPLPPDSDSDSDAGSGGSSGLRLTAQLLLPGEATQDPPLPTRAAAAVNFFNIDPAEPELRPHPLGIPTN
Description: Compounds of the invention were incubated with 1.5 nM [3H]Lysergic acid diethylamide (LSD) for 120 min. at 37° C. […] Receptor proteins were filtered and washed, the filters were then counted to determine [3H]LSD specifically bound. Compounds were screened at 1 μM or lower, using 1% DMSO as vehicle. Biochemical assay results are presented as the percent inhibition of specific binding in Table 10.

[7] = tested on: male Wistar rat; assay: Conditioned avoidance response (CAR) model; type: in vivo; details: 0.3 mg/kg, s.c.
Description: All currently approved antipsychotic agents (typical and atypical) are known to have the ability to selectively suppress conditioned avoidance response (CAR) behavior in the rat. This evidence makes CAR one of the primary tests to assess antipsychotic activity of novel compounds.
The effects of Compound Nos. 83, 88 and 90, at concentrations including 0.1, 0.3, 1, 3, 10 and 20 mg/kg, p.o., in the conditioned avoidance response model were assessed in the male Wistar rat. Risperidone (0.3 mg/kg, s.c.) was used in the present study as a positive reference compound.
For each testing session, animals were first placed for a 4-min. habituation period in a shuttlebox with an electrified grid floor. Then, rats were submitted to 30 trials spaced by intertribal intervals varying at random between 20 and 30 sec. Each trial consisted of a 10-sec. light stimulus (conditioned stimulus, CS) followed by a 10-sec. electric foot shock (unconditioned stimulus, US) in presence of the light presented in the compartment where the rat is located. If the animal moved to the other compartment during the initial 10-sec. of the trial, the light was terminated (no shock was delivered) and the response was recorded as an avoidance response. If the rat changed compartment during the foot shock, the light and the shock were terminated and the response was recorded as an unconditioned response. […] If a response was made during an intertrial interval, the response was recorded as an intertrial crossing. Training was performed 5 days per week with one session of 30 trials per day, until rats reached the performance criterion of 80% of avoidance response on at least two consecutive daily sessions. […] A minimal wash-out period of 48 hours was allowed between 2 treatments. During the wash-out period, animals were trained until they recovered an avoidance performance of at least 80%.
Statistical analysis was performed using a Friedman two-way ANOVA by ranks followed by the Wilcoxon matched-pairs signed-ranks test to test each dose of the test compound administered versus vehicle control treated rats.

T1 sequence (P35367 whole entry): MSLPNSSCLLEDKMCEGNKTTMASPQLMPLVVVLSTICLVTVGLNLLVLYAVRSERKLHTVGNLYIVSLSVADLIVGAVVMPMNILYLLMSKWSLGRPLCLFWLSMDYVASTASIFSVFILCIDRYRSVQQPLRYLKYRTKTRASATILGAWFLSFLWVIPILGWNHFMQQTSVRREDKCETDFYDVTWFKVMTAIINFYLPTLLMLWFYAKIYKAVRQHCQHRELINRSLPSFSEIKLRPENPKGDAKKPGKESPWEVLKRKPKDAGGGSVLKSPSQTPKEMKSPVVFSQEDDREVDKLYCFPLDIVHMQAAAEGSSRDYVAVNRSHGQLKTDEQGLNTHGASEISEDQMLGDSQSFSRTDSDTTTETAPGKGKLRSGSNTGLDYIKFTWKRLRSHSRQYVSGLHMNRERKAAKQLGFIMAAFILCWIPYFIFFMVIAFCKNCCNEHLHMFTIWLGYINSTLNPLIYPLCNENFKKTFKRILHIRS

Structure (SMILES)	binding affinity to H1 [1]	Histamine Binding (1 μM) H1, percent inhibition of specific binding ([2]; 1 μM)	inhibition at 1 µM ([2]; read-out: Histamine Binding (1 μM) H1, percent inhibition of specific binding, 1 μM)	Inhibition of ligand binding, Dopamine D2L ([3]; 1 µM)	inhibition at 1 µM ([3]; read-out: Inhibition of ligand binding, Dopamine D2L)	Inhibition of ligand binding, Serotonin 5-HT2A (percent inhibition of specific binding) ([4]; compound at 0.1 μM, 0.1 µM)	inhibition at 0.1 µM ([4]; read-out: Inhibition of ligand binding, Serotonin 5-HT2A (percent inhibition of specific binding), compound at 0.1 μM)	inhibition at 0.1 µM [5]	Inhibition of ligand binding, Serotonin 5-HT6 (percent inhibition of specific binding) ([6]; compound at 0.1 μM, 0.1 µM)	inhibition at 0.1 µM ([6]; compound at 0.1 μM, read-out: Inhibition of ligand binding, Serotonin 5-HT6 (percent inhibition of specific binding))	inhibition at 1 µM ([6]; compound at 1 μM, read-out: Inhibition of ligand binding, Serotonin 5-HT6 (percent inhibition of specific binding))	number of avoidance responses, change versus pretreatment [7]	number of intertrial crossings, change versus pretreatment [7]	number of escape failures ([7]; increased in 7/12 animals, 0±0 before treatment)
C/C(=C\n1c2c(c3cc(C)ccc31)CN(C)CC2)c1ccc(C)nc1 [compound 85, (E)-2,3,4,5-tetrahydro-2,8-dimethyl-5-(2-(6-methylpyridin-3-yl)prop-1-enyl)-1H-pyrido[4,3-b]indole]	lower binding affinity to H1	13%	9%	57%	43%	98%	88%	92%	19%	22%	68%	–	–	–
Cc1nc2n(c(=O)c1CCN1CCC(c3noc4cc(F)ccc34)CC1)CCCC2 [risperidone, reference compound]	–	–	–	–	–	–	–	–	–	–	–	−61%	−69%	4±1 escape failures
